Here are results for one compound from US12578273B2, “Ph-reversible leuco-BODIPY probe for in situ visualization of extracellular vesicles and their secretion from living cells” (The Chinese University of Hong Kong, priority 2021, dated 2026).

Holding throughout (type): cell-based
Series [1] concerns HeLa cells. The series can be described thus: Pathway for the cellular entry of the probe (NaN3 or 4 °C block of energy-dependent endocytosis). Particulars: 5 μM probe, 30 min. Here is the method:
(§1) FIGS. 29A-29F Pathway for the cellular uptake of the probe. The cells were either (FIGS. 29A-29C) treated with sodium azide (NaN3) or (FIGS. 29D-29F) incubated at 4° C. for blocking energy-dependent endocytosis (red bars). Cells under normal cell culture conditions (37° C. without NaN3) serve as the positive control (green bars). Statistical analysis was conducted by two-tailed Student's t test. Not significant (ns) P>0.05. Error bar indicates standard deviation.
(§2) Cells were firstly cultured in a 96-well plate and allowed to reach about 90% confluence. In our first experiment, the cells were either pretreated in 0.1 mL of complete DMEM containing 5 mM NaN3 (Sigma) at 37° C. for 3 h. After that, the medium was replaced by 0.1 mL of complete medium containing 5 mM NaN3 and 5 μM leuco-BODIPY (in 0.5% DMSO) at 37° C. for another 30 min. In our second experiment, the cells were preincubated with 0.1 mL of complete DMEM inside a 4° C. refrigerator for 30 min. After that, the medium was replaced by 0.1 mL of complete medium containing 5 μM leuco-BODIPY (in 0.5% DMSO) for another 30 min and incubated at 4° C. As the […], cells were incubated with 0.1 mL of complete medium containing 5 μM leuco-BODIPY (in 0.5% DMSO) at 37° C. for 30 min. At the end of both experiments, the fluorescence of the treated cells was measured by a microplate reader (ThermoFisher Fluoroskan Ascent, Waltham, MA) at an excitation wavelength of 584 nm and emission wavelength of 612 nm.
(§3) We studied the mechanism for the cellular uptake of our probe by a pharmacological approach.

The test system of series [2] is A549 cells. The description is as above. Particulars: 5 μM probe, 30 min. On the procedure: as §1, §2, §3
In series [3] the test system is HEK293 cells. The description is as above. Particulars: 5 μM probe, 30 min. On the procedure: as §1, §2, §3
The test system of series [4] is HEK293 cells that express GFP-tagged CD81. The series can be described thus: Confocal imaging of EVs or precursor EVs (colocalization of BODIPY with GFP-tagged CD81). Particulars: 30 min. On the procedure: (§4) Pre-seeded in 35-mm confocal dishes (SPL Life Sciences, Pocheon, South Korea), cells were grown to the desired confluence before transfection. The transfection medium, formulated in 1 mL of OptiMEM (Gibco, Waltham, MA), contains 7.5 μL of Lipofectamine 3000 (Invitrogen) and either 2.5 μg/mL GFP-CD81 or EGFP-tubulin-6 plasmids. After incubating the cells with the transfection medium for 4 h, the cells were switched to 2 mL of plasmid-free complete DMEM for 2 d. After that, the transfected cells were incubated with leuco-BODIPY for further confocal imaging.
(§5) Confocal imaging of EVs or precursor EVs To prepare the stock of the probe for our cell-based experiments, BODIPY was pre-dissolved in 100% DMSO (2 mM). After dissolution, the probe predominantly assumes the leuco-BODIPY form, as evidenced by its light-yellow color. Cells that express marker proteins of interest (i.e., GFP-tagged CD81 or EGFP-tagged tubulin-6) were pre-seeded in 35-mm confocal dishes. After removing the culture medium, the transfected cells were incubated with 1 mL of 2 μM leuco-BODIPY [dissolved in phenol red-free DMEM (Gibco) with […] (Invitrogen) for solubilization] for 30 min. The EVs in the medium or precursor EVs inside cells were imaged under a Leica SP8 confocal microscope with a 63× objective. The excitation wavelengths of the GFP-tagged proteins and BODIPY were 488 nm and 575 nm, respectively. The emission wavelengths of the GFP-tagged proteins and BODIPY were 495-525 nm and 585-710 nm, respectively. All images were taken at the same laser settings.
(§6) Then, we seeded HeLa, A549, or HEK293 cells that express GFP-tagged CD81 in a confocal dish and incubated the cells with phenol red-free medium containing 2 μM leuco-BODIPY and 0.1% DMSO for 30 min. Note that this probe is predominantly in its leuco-BODIPY form when dissolved in DMSO, as evidenced by its light-yellow color. We obtained confocal images of the cell-seeded medium without harvesting the EVs or rinsing the cells (FIGS. 2A, 30-31). Representative images of their extracellular space depict granular or spherical pockets of fluorescence from BODIPY (red) amidst a dark background. […] The fluorescent pockets of BODIPY are submicron-sized or micron-sized, larger than the reported sizes of exosomes (50-200 nm).^36 As the resolution limit of confocal microscopy may overestimate the size of EVs, we isolated EVs from the cell-seeded medium for nanoparticle tracking analysis (NTA; FIG. 2B). The hydrodynamic size distribution of the EVs lies between about 50 nm and about 400 nm, with peak EV diameters of 151 nm, 104 nm, and 156 nm for HeLa, A549, and HEK293 cells, respectively. As these peak EV sizes corroborate the typical sizes of exosomes, we conclude that the EVs detected are mostly exosomes, with a smaller portion of larger ectosomes, clustered exosomes, or extracellular MVBs (FIGS. 4A-4C).
(§7) Next, we attempted to use our probe for imaging intracellular precursor EVs before their secretion to the extracellular milieu. Again, we added leuco-BODIPY (dissolved in DMSO) to culture medium seeded with HeLa, A549, or HEK293 cells that express GFP-tagged CD81 for 30 min (FIG. 3). […] Contrarily, the overlap between BODIPY and GFP-CD81 fluorescence in the cytoplasm is moderate, characterized by Pearson's colocalization coefficients of 0.72, 0.66, and 0.63 for HeLa, A549, and HEK293 cells, respectively. As a negative control, we captured confocal images of the three cell lines but without adding leuco-BODIPY to the medium.

Series [5] relates to HeLa cells that express GFP-tagged CD81. Described as above. Particulars: 30 min. On the procedure:
as §4, §5, §6, §7

In series [6] the test system is A549 cells that express GFP-tagged CD81. The description is as above. Particulars: 30 min. Here is the method:
as §4, §5, §6, §7

Setting [7] is: pretreatment with sodium azide (5 mM).
Where [8] appears, read: extracellular space (CD81-enriched exosomes), 2 μM, no rinsing.

As to `CCOC(=O)C(=Cc1ccc2n1[B-](F)(F)n1c(C=C(C(=O)OCC)C(=O)OCC)ccc1C2(OC)c1ccncc1)C(=O)OCC` [leuco-BODIPY], the “cellular uptake of the probe” value in series [1] (preincubation at 4 °C), in series [1] (setting [7]), in series [2] (preincubation at 4 °C), in series [2] (setting [7]), in series [3] (preincubation at 4 °C) and in series [3] (setting [7]) was “did not significantly affect” in each case. Moreover, the “Pearson's colocalization coefficient between BODIPY and CD81-GFP fluorescence” value in series [4] (setting [8]) amounted to 0.94; in series [5] (setting [8]), 0.92; in series [6] (setting [8]), 0.85. In addition, the “Pearson's colocalization coefficient between BODIPY and GFP-CD81 fluorescence” value in series [4] (in the cytoplasm) came out at 0.63; in series [4] (on the pseudopodia), 0.86; in series [5] (in the cytoplasm) it was 0.72; in series [5] (on the pseudopodia), 0.94; in series [6] (in the cytoplasm), 0.66; in series [6] (on the pseudopodia) it was 0.90.
